These results are taken from article PMC11721022, “Standardized Chromatographic and Computational Approaches for Lipophilicity Analysis of Five Gliflozin Antidiabetic Drugs in Relation to Their Biological Activity” (Molecules, 2024).

Data set [1] can be described thus: TLC lipophilicity (RMW, standardized to log PEXP). In kind it is physicochemical. The protocol:
Plates (10 × 10 cm, 0.25 mm) pre-coated with silica gel RP18F254, RP8F254 and CNF254 from Merck were used as the stationary phases. The tested drugs and six reference substances were dissolved in methanol to obtain working solutions at a concentration of 2 mg/mL. Volumes of 5 µL of these working solutions were spotted onto the plates which were then developed at a distance of 9 cm in the horizontal developing chambers (Chromdes, Lublin, Poland). The ranges for the organic modifier concentration in water varied depending on the type of stationary phase and the modifier used. For RP18 and RP8 systems, acetonitrile in the range 35–60% and methanol in the range 60–85% were used. For CN systems, acetonitrile was used in the range of 40–60% while methanol was used in the range of 45–65%. […] All experiments were performed in triplicate with a constant temperature of 23 ± 0.5 °C.
(§1) In our study, six standards of known lipophilicity in the range of 0.62–3.5 were used. For each standard, the same chromatographic procedures were performed as for the analyzed drugs, obtaining their RF or tR values. Then, the RM, RMW, log k, and log kW values were calculated using Equations (1)–(3). In the next step, correlations between the chromatographically obtained RMW or log kW values for these six standards and their literary log P values were calculated and expressed as respective calibration equations (Table 1). In addition, using these calibration equations, the chromatographic systems were evaluated by calculating the log PEXP values for the standards. […] From these calibration equations, the experimental log PTLC and log PHPLC (log PEXP) for the examined drugs were determined, using their RMW and log kW values.

Data set [2] concerns SGLT2. Conditions: Table 6; cited from earlier work.
Data set [3] concerns SGLT2. The experiment in a line: SGLT2 inhibition (literature). In kind it is biochemical. The note with it: pIC50 (SGLT2, literature) minus mean log PEXP.
On the set-up of data set [4]: method as in PMID 30151080, PMID 34586753. The note with it: cited from earlier work.
Details of data set [5]: method as in PMID 30151080, PMID 34586753. Conditions: cited from earlier work. This is another data set of the same source.
The nature of data set [6]: Experimental lipophilicity from HPLC and TLC methods combined (standardization procedure). In kind it is physicochemical. Conditions: mean over all HPLC and TLC systems. The protocol:
as §1

The nature of data set [7]: HPLC lipophilicity (log kW, standardized to log PEXP). The class given is physicochemical. The method, then: All experiments were performed using an HPLC system equipped with a solvent delivery pump 515 and a UV/VIS detector 2487 from Waters UK Sales (Elstree, UK), a degasser 964 from Jasco Inc. (Easton, MD, USA), and LiChrospher RP18, RP8 and CN columns (125 × 4.0 mm, 5 µm) from Merck. For RP18 and RP8 stationary phases, acetonitrile was used in the range of 35–60% and methanol in the range of 55–80%. For CN adsorbent, acetonitrile was used in the range 30–55% and methanol in the range 45–70%. For all chromatographic systems, a 5% step change in the concentration of the organic modifier was applied (Table S2 in Supplementary Files). The flow for each mobile phase and each chromatographic run was 1 mL/min while detection was performed at 260 nm. The analyzed drugs and six reference substances were dissolved in methanol to obtain concentrations of 0.1 mg/mL and injected into the column in the volume of 20 µL. All experiments were performed in triplicate with a constant temperature of 23 ± 0.5 °C.
as §1

On the set-up of data set [8]: method as in earlier work. Conditions: established lipophilicity of standards; cited from earlier work.
The mark [9] stands for this setting: LiChrospher CN HPLC column (125 × 4.0 mm, 5 µm), HPLC.CN/ACN (CN column, acetonitrile modifier).
Setting [10] is: LiChrospher CN HPLC column (125 × 4.0 mm, 5 µm), HPLC.CN/MeOH (CN column, methanol modifier).
Where [11] appears, read: LiChrospher RP18 HPLC column (125 × 4.0 mm, 5 µm), HPLC.RP18/MeOH.
The mark [12] stands for this setting: HPLC.CN/MeOH (CN column, methanol modifier).
[13] abbreviates: LiChrospher RP8 HPLC column (125 × 4.0 mm, 5 µm), HPLC.RP8/MeOH.
The mark [14] stands for this setting: LiChrospher RP18 HPLC column (125 × 4.0 mm, 5 µm), HPLC.RP18/ACN.
The mark [15] stands for this setting: LiChrospher RP8 HPLC column (125 × 4.0 mm, 5 µm), HPLC.RP8/ACN.

As to `Cc1ccc([C@@H]2O[C@H](CO)[C@@H](O)[C@H](O)[C@H]2O)cc1Cc1ccc(-c2ccc(F)cc2)s1` [CANA, canagliflozin], the chromatographic logP in data set [1] (TLC.CN/ACN) came out at 2.4; in data set [1] (TLC.CN/MeOH), 5.86; in data set [1] (TLC.RP8/ACN) it was 3.55; in data set [1] (TLC.RP8/MeOH) it was 4.07; in data set [1] (TLC.RP18/ACN), 3.47; in data set [1] (TLC.RP18/MeOH), 4.43. In addition, the chromatographic logP in data set [7] (setting [9]) is 3.73; in data set [7] (setting [10]), 4.91; in data set [7] (setting [11]), 4.55. For the same compound, the 50% inhibitory concentration (IC50) in data set [2] was 2.2 nM. Moreover, the “LLE (lipophilic ligand efficiency)” value in data set [3] was 4.67. Besides, the “CL (apparent total clearance)” value in data set [4] is on record as 11.52 L/h. For the same compound, in data set [4], the “VD (apparent volume of distribution)” value is on record as 83.5 L. The “PB (protein-binding capacity)” value in data set [5] is reported as 99%. Further, the “log PEXP (Mean ± SD)” value in data set [6] was 3.99 ± 0.91. Also, the “log PEXP” value in data set [7] (HPLC.RP8/ACN) came to 3.23; in data set [7] (HPLC.RP8/MeOH), 4.43; in data set [7] (HPLC.RP18/ACN), 3.28.
As for `OC[C@H]1O[C@@H](c2ccc(Cl)c(Cc3ccc(O[C@H]4CCOC4)cc3)c2)[C@H](O)[C@@H](O)[C@@H]1O` [EMPA, empagliflozin], the chromatographic logP in data set [1] (TLC.CN/ACN) came to 1.87; in data set [1] (TLC.CN/MeOH), 3.51; in data set [1] (TLC.RP8/ACN) it was 1.68; in data set [1] (TLC.RP8/MeOH) it was 2.48; in data set [1] (TLC.RP18/MeOH) it was 2.99; in data set [7] (setting [9]), 2.3. The figures for the chromatographic logP in data set [7] (setting [13]), in data set [7] (setting [14]) and in data set [7] (setting [11]) were 2.78, 1.35 and 2.85, respectively. Further, the “log PEXP” value stood at 1.30 in data set [1] (TLC.RP18/ACN), 2.66 in data set [7] (setting [12]) and 1.70 in data set [7] (HPLC.RP8/ACN). In addition, the “LLE (lipophilic ligand efficiency)” value in data set [3] worked out at 6.23. Further, the “CL (apparent total clearance)” value in data set [4] is 10.6 L/h. Further, in data set [4], the “T0.5 (half-life)” value is listed as 12.4 h. For the same compound, in data set [4], the “VD (apparent volume of distribution)” value was 73.8 L. Moreover, the “PB (protein-binding capacity)” value in data set [5] is on record as 86%. Besides, the “log PEXP (Mean ± SD)” value in data set [6] is reported as 2.28 ± 0.73.
Regarding `CCOc1ccc(Cc2cc([C@]34OC[C@](CO)(O3)[C@@H](O)[C@H](O)[C@H]4O)ccc2Cl)cc1` [ERTU, ertugliflozin], the chromatographic logP in data set [1] (TLC.CN/ACN) amounted to 2.01; in data set [1] (TLC.CN/MeOH), 3.97; in data set [1] (TLC.RP8/MeOH) it was 3.54; in data set [1] (TLC.RP18/ACN) it was 3.13; in data set [1] (TLC.RP18/MeOH) it was 3.27; in data set [7] (setting [9]), 2.49. Also, the chromatographic logP worked out at 3.36 in data set [7] (setting [10]), 2.4 in data set [7] (setting [15]), 3.49 in data set [7] (setting [13]) and 3.59 in data set [7] (setting [11]). Further, the “log PEXP” value in data set [1] (TLC.RP8/ACN) is reported as 2.99; in data set [7] (HPLC.RP18/ACN), 2.22. Further, in data set [2], the IC50 was 0.87 nM. Besides, the “LLE (lipophilic ligand efficiency)” value in data set [3] is given as 6.02. Also, the “CL (apparent total clearance)” value in data set [4] is recorded as 10.68 L/h. For the same compound, the “T0.5 (half-life)” value in data set [4] is recorded as 11 h. The “VD (apparent volume of distribution)” value in data set [4] is reported as 85.5 L. The “PB (protein-binding capacity)” value in data set [5] is recorded as 94%. Besides, the “log PEXP (Mean ± SD)” value in data set [6] came to 3.04 ± 0.61.
Turning to `CCOc1ccc(Cc2cc([C@@H]3O[C@H](CO)[C@@H](O)[C@H](O)[C@H]3O)ccc2Cl)cc1` [DAPA, dapagliflozin], the chromatographic logP in data set [1] (TLC.CN/ACN) came to 2.03; in data set [1] (TLC.CN/MeOH), 4.72; in data set [1] (TLC.RP8/ACN) it was 2.3; in data set [1] (TLC.RP18/ACN), 2.22; in data set [1] (TLC.RP18/MeOH), 3.58; in data set [7] (setting [10]), 3.08. Further, the results for the chromatographic logP in data set [7] (setting [15]), in data set [7] (setting [14]) and in data set [7] (setting [11]) were 2.11, 2 and 3.27, respectively. Also, the “log PEXP” value in data set [1] (TLC.RP8/MeOH) was found to be 3.14; in data set [7] (HPLC.CN/ACN (CN column, acetonitrile modifier)), 2.34; in data set [7] (HPLC.RP8/MeOH) it was 3.20. Besides, the “LLE (lipophilic ligand efficiency)” value in data set [3] is 6.12. Besides, the “CL (apparent total clearance)” value in data set [4] is reported as 12.42 L/h. The “VD (apparent volume of distribution)” value in data set [4] is on record as 118 L. Moreover, the “PB (protein-binding capacity)” value in data set [5] is given as 91%. The “log PEXP (Mean ± SD)” value in data set [6] is listed as 2.83 ± 0.78.
Turning to `CCOc1ccc(Cc2cc([C@@H]3O[C@H](SC)[C@@H](O)[C@H](O)[C@H]3O)ccc2Cl)cc1` [SOTA, sotagliflozin], the chromatographic logP in data set [1] (TLC.CN/ACN) worked out at 2.32; in data set [1] (TLC.CN/MeOH), 4.61; in data set [1] (TLC.RP8/ACN), 4.08; in data set [1] (TLC.RP8/MeOH), 4.26; in data set [1] (TLC.RP18/ACN), 3.69; in data set [1] (TLC.RP18/MeOH), 4.5. Also, the chromatographic logP worked out at 3.59 in data set [7] (setting [9]), 3.28 in data set [7] (setting [15]) and 3.4 in data set [7] (setting [14]). In data set [2], the IC50 is 1.8 nM. Besides, the “LLE (lipophilic ligand efficiency)” value in data set [3] is 4.8. In addition, the “CL (apparent total clearance)” value in data set [4] was 261 L/h. For the same compound, in data set [4], the “T0.5 (half-life)” value is 21 h. The “VD (apparent volume of distribution)” value in data set [4] is 9392 L. The “PB (protein-binding capacity)” value in data set [5] is recorded as 98%. Further, the “log PEXP (Mean ± SD)” value in data set [6] came to 3.94 ± 0.67. Further, the “log PEXP” value in data set [7] (setting [12]) was 4.57; in data set [7] (HPLC.RP8/MeOH) it was 4.43; in data set [7] (HPLC.RP18/MeOH) it was 4.50.
Regarding `c1ccc(Nc2ccccc2)cc1` [S6, diphenylamine], the “log P” value in data set [8] is 3.5.
On to `Nc1ccccc1O` [S1, 2-aminophenol], for which, in data set [8], the lipophilicity (log P) was 0.62.
